Data on eight compounds can be found in patent US12060388B2, “Cell-penetrating peptides and methods of use thereof” (priority 2018, dated 2024).

The target of one test is T1, retromer (Vps35) (Homo sapiens, UniProt O75436+Q96QK1).
T1 construct: endogenous in cells; host or cells: HeLa S3 lysate (RIPA-MOPS buffer)
In words: Biotinylated peptide pull-down from HeLa S3 lysate, blot for Vps35. The following applies: streptavidin pull-down. It counts as binding. How it is done: For peptide pull-down experiments, N-terminal biotinylated L2 peptides (sequences shown in FIG. 2A) were purchased from ABClonal Science (Woburn, MA) at >95% purity. L2 wild-type was dissolved initially in 30% acetic acid and DMSO (˜70 μl each), and then dissolved in sterile deionized water with 0.01% sodium azide. L2-6A, L2-3R and L2-DM were initially solubilized in a small amount of DMSO (˜70-80 μl) and then dissolved in sterile deionized water with 0.01% sodium azide. Peptide stocks (5 mg/ml) were aliquoted and stored at −20° C. HeLa S3 cells plated in six-well plates were lysed at ˜80% confluency with 500 μl RIPA-MOPS buffer (20 mM morpholinepropanesulfonic acid [pH 7.0], 150 mM NaCl, 1% Nonidet P-40, 1 mM EDTA, 1% deoxycholic acid, 0.1% sodium dodecyl sulfate [SDS]) supplemented with protease inhibitors (1×HALT protease and phosphatase inhibitor cocktail (Thermo Scientific, Waltham, MA; #78443)). The lysate was centrifuged at 14,000 rpm for 20 min, and the supernatant was incubated with 10 μg of a biotinylated peptide for two h at 4° C. Fifty μl of streptavidin agarose beads slurry (Pierce, Rockford, IL; #20349) was added, and the mixture was gently rocked for 45 min at 4° C. […] Samples were analyzed by SDS-PAGE and immunoblotting with antibody recognizing Vps35 (Abcam, Cambridge, MA; ab57632).

In the next test the test system is HaCaT cells. The test can be described thus: Modulation of CPP action by flanking sequences, GFP fusion proteins on HaCaT cells. It counts as cell-based, human. How it is done:
Fusion proteins with various segments of the C-terminus of HPV16 or HPV5 L2 were added to HaCaT cells. The sequences used are as follows:
In some cases, various concentrations of fusion proteins were added to assess efficacy. In other cases, the pH of the culture medium was physiological pH 7 or adjusted to acidic pH 4 prior to peptide addition, or the cells were incubated with peptide at physiological temperature of 37° C. or at 30° C. Activity was assessed by confocal microscopy for intracellular fluorescence. In some experiments, cell surface fluorescence was extinguished by treatment with the membrane-impermeable fluorescence quencher, trypan blue.

The subject of test [1] is wild-type HPV16 pseudovirus. The test can be described thus: Peptide inhibition experiment with L2-C, HeLa cells. It counts as cell-based. The following applies: 4 μg peptide, infectivity 48 hours later. How it is done:
HeLa cells were treated at 37° C. with 4 μg L2-C, a peptide containing the HPV16 L2 retromer binding site and CPP or mock treated. B represents N terminal biotinylation and Am represents C-terminal amidation. Two hours later, the cells were infected for two hours at 37° C. with wild-type HPV16 pseudovirus. Cells were washed and medium was replenished with medium containing the peptide for 24 hours. Infectivity was tested 48 hours later by using flow cytometry to measure fluorescence of HcRed expressed from a plasmid encapsidated in the pseudovirus particle. Similar results were obtained in two independent experiments.
HeLa cells were left untreated or treated at 37° C. with 4 μg L2-C, a peptide containing the HPV16 L2 retromer binding site and CPP. The sequence of L2-C is as follows: B-[…]-Am, (SEQ ID NO: 533), where B represents N-terminal biotinylation and Am represents C-terminal amidation. Two hours later, the cells were infected for two hours at 37° C. with wild-type HPV16 pseudovirus. Cells were washed and medium was replenished with medium containing the peptide for 24 hours. Infectivity was tested 48 hours later by using flow cytometry to measure fluorescence of HcRed expressed from a reporter plasmid encapsidated in the pseudovirus particle, and normalized to infectivity of cells infected in the absence of peptide. Similar results were obtained in two independent experiments.

Another test relates to HPV16 PsV. In words: HPV16 PsV infectivity in HeLa S3 cells with chemical inhibitors. The following applies: MOI of one, 48 h.p.i. In kind it is cell-based. How it is done:
5×10^4 HeLa S3 or HaCaT cells in 12-well plates were incubated with PsVs at MOI of approximately one. The number of packaged reporter plasmids required to achieve this MOI as assessed by flow cytometry for reporter gene expression from wild-type PsV was quantified by qPCR, and an equivalent number of genomes in mutant PsV were used to infect cells. Approximately five-fold more virus was used to attain this MOI in HaCaT cells. Cells were analyzed by flow cytometry on a Stratedigm-12 flow cytometer to determine the fraction of cells displaying HcRed fluorescence 48 h.p.i. To measure dependence on retromer, 1×10^5 HeLa S3 cells in a 12-well plate were transfected […] to infection with 10 pmol siRNAs targeting Vps29 (Dharmacon, Lafayette, CO; #D-009764-03) or Vps35 (Dharmacon, #D-010894-01) by using RNAiMAX (Thermo Fisher, Waltham, MA, #13778100) according to manufacturer's protocol. Cells transfected with a 10 pmol RISC-free siRNA were used as a control. Forty-eight h.p.i., infectivity was measured by flow cytometry for reporter gene expression. […] Forty-eight h.p.i., infectivity was measured by flow cytometry for HcRed expression. […] Forty-eight h.p.i., infectivity was measured by flow cytometry for HcRed expression.

In test [2] the test system is HPV16 PsV containing GFP11-tagged L2. The test can be described thus: Split GFP assay with aphidicolin, HaCaT/GFP1-10NES cells. In kind it is cell-based. The following applies: 6 μM, MOI of 2000, three h.p.i. Here is the method: FIG. 12A depicts HeLa S3 cells left untreated or treated with 6 μM aphidicolin. Twenty-four h later, cells were infected at MOI of one with wild-type HPV16 PsV or PsV containing L2-GFP11-CPP or L2-CPP-GFP11. Forty-eight h.p.i., the fraction of infected cells was determined by flow cytometry for HcRed fluorescence and normalized to untreated cells infected with wild-type HPV16 PsV. FIG. 12B depicts HaCaT/GFP1-10NES cells infected at an MOI of 2000 with wild-type HPV16 PsV or PsV containing GFP11-tagged L2 in the presence of absence of 6 μM aphidicolin. Three h.p.i., cells were examined by confocal microscopy for reconstituted GFP fluorescence. Fluorescence in individual cells (˜250 for each condition) is plotted from two independent experiments. […]
Generation of stable cell lines. […] Single cells were then plated in a 96-well plate, and monoclonal cell lines were isolated and tested by infection of HPV16-CPP-GFP11 PsV at ˜2000 MOI and monitoring fluorescence. […] Images were acquired with a Leica SP5 inverted fluorescence microscope to identify cell lines expressing cytoplasmic GFP1-10NES. […] Twenty-four hours later, live cells were examined by fluorescence microscopy. […] Twenty-four h later, live cells were examined by fluorescence microscopy. As expected, fluorescence with GFP11-CD8-CIMPR was reconstituted only when the GFP1-10 segment was luminal (FIG. 8F). […]

No end group written: not given here. *: point of attachment. Biotin = O=C1N[C@H]2[C@H](CS[C@H]2CCCCC(=O)*)N1

Regarding “L2-3R: N-terminal biotinylated C-terminal L2 peptide with the 3R mutation (Biotin-SPQYTIIADAGDFYLHPSYYMLRRR)”, in the test with retromer (Vps35), the “retromer binding of L2 peptide in vitro” value is on record as “did not affect retromer binding”.
Turning to “His6-GFP-linker-IPVVIIHPHDSTGDFYLHPSLHRRKRKRKYL [GFP fusion protein with HPV5 C-terminus]”, the “cell binding, temperature dependence” value with HaCaT cells (three hours, 30° C. or 37° C.) was “better at 30 °C than at 37 °C”.
Turning to “B-SPQYTIIADAGDFYLHPSYYMLRKRRKR-Am [L2-C]”, the “inhibition of infection by HPV16 PsV” value in test [1] is listed as “dramatic inhibition of infection”.
Consider `C[C@@]1(CO)[C@H](O)CC[C@@]2(C)[C@H]1CC[C@H]1C[C@@H]3C[C@@]12CC[C@]3(O)CO` [aphidocolin, aphidicolin], for which the “effect on HPV infection” value in the test with HPV16 PsV (6 μM, pretreated 24 h) is “inhibited infection”. In test [2], the “reconstituted GFP signal” value was “did not decrease the reconstituted GFP signal”.
Regarding `C[C@H](NC(=O)Cc1cc(F)cc(F)c1)C(=O)N[C@H]1N=C(c2ccccc2)c2ccccc2N(C)C1=O` [XXI], the “inhibition of wild-type and L2-Tat PsV infection” value with HPV16 PsV (250 nM, pretreated one h) is “near-complete inhibition”.
As to “His6-GFP-linker-PQYTIIADAGDFYLHPSYYMLRKRRKR [GFP-21P-CPP]”, the “cell binding and entry at pH 7” value with HaCaT cells (three hours at 37° C.) was “binds”.
Take His6-GFP-linker-RKRRKR: the “cell binding and entry at pH 7” value in the test on HaCaT cells (three hours at 37° C.) was “active in cell binding and internalization, but is not as efficient”.
For “His6-GFP-linker-PQYTIIADAGDFYLHPSYYMLRKRRKRLPYFFSDVSLAA [GFP-HPV16 L2]”, the “cell binding and entry at pH 4” value in the test on HaCaT cells (three hours at 37° C., pH 4) is reported as “well”. For the same compound, the “cell binding and entry at pH 7” value in the test with HaCaT cells (three hours at 37° C.) is on record as “poorly”.
